What was measured:
human COL1A2 promoter = test: Col1A2 gene transcriptional activity (luciferase) in NIH-3T3-Col1A2-luc cells stimulated with TGFβ; format: cell-based, mouse; settings: TGFβ 10 ng/ml, 24 h; Figure 3
Text: The effect of CBD isomers on collagen transcriptional regulation in NIH-3T3 cells stably expressing the Col1A2-luc plasmid, which encodes the gene promoter of the pro-alpha2 chain component of type I collagen fused to the luciferase gene, was studied. NIH-3T3-COL1A2-Luc fibroblast cells were generated by stable transfection of the COL-1A2-Luc plasmid, containing sequences from -353 to +58 bp of the human COL1A2 promoter fused to the luciferase reporter gene, and pPURO plasmid. Cells are cultivated at a density of 1 x 10^4 cells/ml for 24 h at 37°C. Then the cells were treated with the CBD isomers at several concentrations and TGFβ (10 ng/ml) for 24 h. Then, the cells are washed with PBS and lysed in 50 µl lysis buffer containing 25 mM Tris-phosphate (pH 7.8), 8 mM MgCl2, 1 mM DTT, 1% Triton X-100, and 7% glycerol during 15 min. Luciferase activity and protein concentration is measured in the cell lysates, to calculate the RLU/µg of protein and the results expressed as the percentage of induction considering the value obtained with TGFβ as 100% activation. The protein concentration in the cell extracts was measured by the Bradford method (BioRad).

TRPV-1 = TRPV-1 (Homo sapiens, UniProt Q8NER1); settings: Bisogno et al. 2001; cited from earlier work
Chain of TRPV-1 (Q8NER1 whole entry, species assumed): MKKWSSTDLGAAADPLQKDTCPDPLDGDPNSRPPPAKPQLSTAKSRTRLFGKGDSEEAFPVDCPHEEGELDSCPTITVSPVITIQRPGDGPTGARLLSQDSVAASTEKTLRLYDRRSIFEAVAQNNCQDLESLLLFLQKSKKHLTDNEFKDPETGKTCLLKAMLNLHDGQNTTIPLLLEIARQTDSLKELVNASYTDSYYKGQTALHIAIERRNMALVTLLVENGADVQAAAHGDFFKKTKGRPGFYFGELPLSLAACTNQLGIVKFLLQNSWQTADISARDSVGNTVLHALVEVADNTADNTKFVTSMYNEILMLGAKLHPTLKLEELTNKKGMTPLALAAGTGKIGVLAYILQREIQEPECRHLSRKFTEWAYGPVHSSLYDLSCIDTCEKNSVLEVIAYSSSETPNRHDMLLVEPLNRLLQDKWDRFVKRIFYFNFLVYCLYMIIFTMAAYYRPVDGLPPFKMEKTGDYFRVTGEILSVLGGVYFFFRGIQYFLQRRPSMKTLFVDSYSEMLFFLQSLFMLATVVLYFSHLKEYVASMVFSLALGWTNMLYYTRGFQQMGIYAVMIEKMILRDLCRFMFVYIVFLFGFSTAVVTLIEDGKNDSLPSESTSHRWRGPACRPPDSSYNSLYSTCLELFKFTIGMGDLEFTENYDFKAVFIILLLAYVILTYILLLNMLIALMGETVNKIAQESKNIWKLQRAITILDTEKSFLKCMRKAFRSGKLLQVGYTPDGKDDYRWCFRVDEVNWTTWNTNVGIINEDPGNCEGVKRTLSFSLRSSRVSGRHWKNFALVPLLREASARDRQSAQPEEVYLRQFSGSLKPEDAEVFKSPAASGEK

Nrf2 pathway = test: Nrf2 activation (ARE-Luc luciferase) in HaCaT-ARE-Luc keratinocytes; format: cell-based; settings: 6 h, increasing concentrations; Figure 7
Text: Nrf2 is a transcription factor which, upon activation in response to inflammatory or oxidative stress, activates a robust anti-inflammatory and cytoprotective transcription program. Therefore, Nrf2 activation may represent a novel approach for the treatment of scleroderma and other fibrotic diseases. Thus, the effect of CBD isomers on the activation of the Nrf2 pathway in the keratinocyte cell line HaCaT-ARE-Luc, containing the Nqo1 Antioxidant Response Element (ARE)-Luc reporter plasmid stably transfected, was explored. ARE is activated by all members of the CNC family of factors (Nrf1, Nrf2, Nrf3 and p45 NF-E2). The cells are cultivated in 96-well plates at the concentration of 2x10^4 cells/well in a CO2 incubator at 37°C. For induction of Nrf2 activation the cells were treated with increasing concentrations of the CBD isomers for 6 h. As a positive control the cells were treated with 0,01 mM of Tert-butyl-hydroperoxide (TBHP) for 6 h. […] Luciferase activity was measured using TriStar^2 Berthold/LB942 multimode reader (Berthold Technologies) following the instructions of the luciferase assay kit (Promega, Madison, WI, USA). The background obtained with the lysis buffer was subtracted in each experimental value, and the specific transactivation expressed as fold induction over basal levels (untreated cells).

human CB1 = molecular target: T1, human CB1 (Homo sapiens, UniProt P21554); test: CB1 antagonism assay (CRE-Luc reporter) in HEK-293T-CB1 cells stimulated with WIN-55,212-2; format: cell-based; settings: 15 min preincubation, then WIN-55,212-2 for 6 h; CRE-Luc luciferase; Figure 1
T1 construct: HEK-293T-CB1 (stably transfected with CB1 cDNA); expressed in transfected cells; host or cells: HEK-293T
T1 sequence (P21554 whole entry): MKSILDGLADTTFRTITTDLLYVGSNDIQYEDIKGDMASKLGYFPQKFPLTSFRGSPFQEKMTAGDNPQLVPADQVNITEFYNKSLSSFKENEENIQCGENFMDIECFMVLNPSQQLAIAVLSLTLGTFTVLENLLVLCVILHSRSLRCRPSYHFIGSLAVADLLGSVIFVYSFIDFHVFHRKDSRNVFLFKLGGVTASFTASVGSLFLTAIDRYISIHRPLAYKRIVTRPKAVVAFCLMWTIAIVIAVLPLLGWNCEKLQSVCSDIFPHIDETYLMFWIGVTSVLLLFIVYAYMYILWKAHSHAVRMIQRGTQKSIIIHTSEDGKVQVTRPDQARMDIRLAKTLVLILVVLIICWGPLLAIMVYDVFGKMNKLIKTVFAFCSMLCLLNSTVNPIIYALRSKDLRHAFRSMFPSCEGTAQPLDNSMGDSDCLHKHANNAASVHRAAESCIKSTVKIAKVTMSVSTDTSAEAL
Procedure: To investigate the biological activities of the CBD enantiomers on CB1 and TRPV1 receptors were performed functional assays in both HEK-293T-CB1 and HEK-293T-TRPV1 cells, which overexpress human CB1 and TRPV-1 receptors respectively. HEK-293T-CB1 (stably transfected with CB1 cDNA) were maintained in supplemented DMEM medium containing 10% FBS and 1% antibiotics penicillin/streptomycin (DMEM complete medium) at 37°C in a humidified atmosphere of 5% CO2. The cells were incubated in 24-well plates (1x10^5 cell/ml) and transiently transfected with 0,1 µg/ml of the plasmid CRE-Luc that contains six consensus cAMP responsive elements (CRE) linked to firefly luciferase. Transient transfections were performed with Rotifect (Carl Roth GmbH, Karlsruhe, Germany) according to the manufacturer's instructions and harvested 24 h after transfection. For CB1 antagonistic activity the transfected cells were incubated with increasing concentrations of the CBD enantiomers for 15 min and then stimulated with WIN-55, 212-2 (CB1 agonist), during 6 h and then luciferase activity measured in the cell lysates. […]

α-SMA = α-SMA expression by Western blot in TGFβ-treated NIH-3T3 cells (myofibroblast differentiation); format: cell-based; settings: 1 h preincubation, TGFβ 10 ng/ml 24 h; Figure 5
Procedure: It is well known that TGFβ drives the conversion of fibroblasts into myofibroblasts, and the accumulation of myofibroblasts cells in fibrotic skin is a hallmark of SSc. Myofibroblasts are characterized by the novo synthesis of α-smooth muscle actin (a-SMA) fibers. To investigate α-SMA expression NIH-3T3 cells were preincubated with either (+)CBD or (-)CBD for 1 h and then treated with TFGβ (10 ng/ml) for 24 h. Cells were washed with PBS and proteins extracted in 50 µl of lysis buffer (50 mM Tris-HCl pH 7.5, 150 mM NaCl, 10% glycerol and 1% NP-40) supplemented with 10mM NaF, 1 mM Na3VO4, 10 µg/ml leupeptine, 1 µg/ml pepstatin and aprotinin, and 1 µl/ml PMSF saturated. Protein concentration was determined by the Bradford assay (Bio-Rad, CA, USA) and 30 µg of proteins were boiled at 95 °C in Laemmli buffer and electrophoresed in 10% SDS/PAGE gels. Separated proteins were transferred to PVDF membranes (20V for 30 min) and blocked in TBS solution containing 0.1% Tween 20 and 5% non-fat dry milk for 1 hour at room temperature. Immunodetection of specific proteins was carried out by incubation with primary antibody against α-SMA (1:500; sc-32251, Santa Cruz). After washing membranes, horseradish peroxidase-conjugated secondary antibody was added and detected by chemiluminescence system (GE Healthcare Europe GmbH). […]

anandamide hydrolysis = settings: Bisogno et al. 2001; cited from earlier work

Row | SMILES | collagen promoter transcriptional activity (human COL1A2 promoter) | activity of the TRPV-1 (TRPV-1) | activation of the Nrf2 pathway (Nrf2 pathway) | CB1 antagonistic activity (human CB1) | expression α-SMA protein induced by TGFβ (α-SMA) | anandamide hydrolysis (anandamide hydrolysis)
1 | C=C(C)[C@H]1CCC(C)=C[C@@H]1c1c(O)cc(CCCCC)cc1O [(+)CBD, (+)Cannabidiol] | significantly reduced | modulated | able to activate the Nrf2 pathway in keratinocytes and in a concentration-dependent manner | clear CB1 antagonistic activity | attenuated | inhibited
2 | C=C(C)[C@@H]1CCC(C)=C[C@H]1c1c(O)cc(CCCCC)cc1O [(-)CBD, 2-[(1R,6R)-3-methyl-6-prop-1-en-2-ylcyclohex-2-en-1-yl]-5-pentylbenzene-1,3-diol] | significantly reduced | modulated | able to activate the Nrf2 pathway in keratinocytes and in a concentration-dependent manner | clear CB1 antagonistic activity | attenuated | inhibited
